Results reported in PMC5121239, “Muscle-Type Nicotinic Receptor Modulation by 2,6-Dimethylaniline, a Molecule Resembling the Hydrophobic Moiety of Lidocaine” (Frontiers in Molecular Neuroscience, 2016).

Columns and labels:
[1] = target: T1, muscle-type nicotinic acetylcholine receptor (nAChR) (Torpedo marmorata, UniProt P02711+Q6S3H8+Q6S3H9+Q6S3I0); assay: two-electrode voltage clamp in Xenopus oocytes, agonist concentration-response; format: cell-based
T1 construct: gene CHRNA1; purified electroplax nAChR reconstituted in asolectin lipids and microtransplanted to Xenopus oocytes; with nAChR beta, gamma and delta subunits (alpha1, alpha2, beta, gamma, delta heteropentamer)
T1 sequence (P02711 25-461): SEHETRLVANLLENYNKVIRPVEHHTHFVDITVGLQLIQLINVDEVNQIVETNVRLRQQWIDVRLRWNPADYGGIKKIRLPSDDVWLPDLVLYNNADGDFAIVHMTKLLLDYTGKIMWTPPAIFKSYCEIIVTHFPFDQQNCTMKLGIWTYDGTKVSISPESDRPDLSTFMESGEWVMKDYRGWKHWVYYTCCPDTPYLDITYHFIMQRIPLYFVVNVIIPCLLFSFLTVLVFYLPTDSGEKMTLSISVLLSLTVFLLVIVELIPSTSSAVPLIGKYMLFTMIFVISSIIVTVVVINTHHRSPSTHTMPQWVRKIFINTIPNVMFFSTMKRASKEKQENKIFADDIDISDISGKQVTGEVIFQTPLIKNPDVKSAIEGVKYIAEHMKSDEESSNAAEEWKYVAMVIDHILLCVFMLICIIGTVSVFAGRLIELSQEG
T1 sequence (Q6S3I0 25-493): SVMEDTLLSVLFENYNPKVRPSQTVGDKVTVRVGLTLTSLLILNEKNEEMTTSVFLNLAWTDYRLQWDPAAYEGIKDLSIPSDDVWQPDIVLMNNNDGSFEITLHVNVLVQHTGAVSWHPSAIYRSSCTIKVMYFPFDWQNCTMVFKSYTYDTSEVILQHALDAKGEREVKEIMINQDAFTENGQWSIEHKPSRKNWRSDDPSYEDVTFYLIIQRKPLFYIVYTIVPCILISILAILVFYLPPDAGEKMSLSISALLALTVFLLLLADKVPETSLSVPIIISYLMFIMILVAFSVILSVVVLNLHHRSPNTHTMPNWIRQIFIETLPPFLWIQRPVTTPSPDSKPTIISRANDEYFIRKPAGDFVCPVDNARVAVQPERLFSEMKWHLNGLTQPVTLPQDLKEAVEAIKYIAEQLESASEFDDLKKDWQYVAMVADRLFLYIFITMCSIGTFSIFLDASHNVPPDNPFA
T1 sequence (Q6S3H9 18-505): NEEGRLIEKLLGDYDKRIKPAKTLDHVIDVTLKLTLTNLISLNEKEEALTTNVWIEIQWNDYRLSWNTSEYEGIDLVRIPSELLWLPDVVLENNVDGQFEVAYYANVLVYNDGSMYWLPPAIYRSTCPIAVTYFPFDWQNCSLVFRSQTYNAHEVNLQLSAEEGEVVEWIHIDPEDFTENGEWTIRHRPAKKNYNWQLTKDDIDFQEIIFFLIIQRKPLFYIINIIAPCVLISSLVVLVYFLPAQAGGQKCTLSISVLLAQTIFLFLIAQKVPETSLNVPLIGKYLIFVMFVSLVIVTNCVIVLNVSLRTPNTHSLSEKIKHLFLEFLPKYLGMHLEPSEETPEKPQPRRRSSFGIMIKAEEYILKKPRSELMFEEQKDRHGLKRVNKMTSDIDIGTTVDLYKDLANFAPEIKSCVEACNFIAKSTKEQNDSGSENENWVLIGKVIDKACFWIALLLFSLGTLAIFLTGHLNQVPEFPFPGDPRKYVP
T1 sequence (Q6S3H8 22-522): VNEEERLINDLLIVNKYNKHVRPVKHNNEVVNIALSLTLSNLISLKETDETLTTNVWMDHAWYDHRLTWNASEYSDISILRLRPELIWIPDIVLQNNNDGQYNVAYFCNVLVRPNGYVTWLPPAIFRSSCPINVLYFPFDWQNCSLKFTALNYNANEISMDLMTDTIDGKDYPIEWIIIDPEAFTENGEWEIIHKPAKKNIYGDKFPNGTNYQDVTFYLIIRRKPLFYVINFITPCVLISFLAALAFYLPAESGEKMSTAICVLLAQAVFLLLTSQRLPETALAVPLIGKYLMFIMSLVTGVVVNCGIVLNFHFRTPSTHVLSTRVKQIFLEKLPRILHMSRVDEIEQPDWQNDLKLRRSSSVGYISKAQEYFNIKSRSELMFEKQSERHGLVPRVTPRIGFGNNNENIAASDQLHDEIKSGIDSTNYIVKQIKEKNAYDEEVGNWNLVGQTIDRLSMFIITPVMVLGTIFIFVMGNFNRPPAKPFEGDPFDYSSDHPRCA

[2] = target: T1, muscle-type nicotinic acetylcholine receptor (nAChR); assay: two-electrode voltage clamp in Xenopus oocytes, inhibition of current evoked by […] ACh; format: cell-based

Structure (SMILES) | EC50 [1] [mM] | IC50 [2] [mM]
CC(=O)OCC[N+](C)(C)C [ACh, acetylcholine] | 0.029 | –
Cc1cccc(C)c1N [DMA, 2,6-dimethylaniline] | – | 2.1
